Data set [1] is described as follows: Testosterone concentrations after a pharmacological dose of CORT (Examples 1 and 2). It is filed as in vivo, zebra finches. As to conditions: within 1-3 hours of administration.
Data set [2] can be described thus: Example 2: plasma corticosterone radioimmunoassay after injection, zebra finches. It is filed as in vivo, Zebra finch (Taeniopygia guttata). The settings on record: zebra finch, 20 ug. The protocol:
Radioimmunoassays. […] Different individuals were sampled at each time point. Blood samples were also taken from a set of unmanipulated females at time intervals 20 minutes and 1 hour, during the same bleeding session. To ensure that measurements reflect corticosterone elevations associated with the injection and not the stress of handling, samples were taken from the brachial vein within 3 minutes of capture (Romero and Romero, 2002, Condor; 104:129-135; Wingfield et al., 1982, Condor; 84:399-409). Injections and sampling began at 2300 hours (5 hors prior to ovulation) to accurately measure the blood plasma levels of corticosterone and changes in corticosterone levels in response to injections during the approximate period that meiosis occurs. Based on studies done in other avian species, it is likely that the time period from injection to blood sampling is just prior to the natural diurnal CORT peak that occurs at the end of the dark period (Westerhof et al., 1994, Avian Diseases; 38:428-434; de Jong et al., 2001, Physiology and Behavior; 74:299-304). The procedures for extraction and radioimmunoassay of corticosterone from plasma were followed as described by (Wingfield and Farner, 1975, Steroids; 26:311-327) and (Mendonça et al., 1996, Horm Behav; 30:153-161) using a rabbit derived anti-corticosterone antibody (MP Biomedicals, Solon, Ohio USA, cat #07-120016).
Statistical Analysis. Plasma CORT concentrations were analyzed among treatment groups and time points using a two-way ANOVA, and individual treatment differences were analyzed using Fisher's PLSD. All hormone data were non-normally distributed and were thus log transformed for statistical analyses.

Data set [3] has as its system zebra finch (Taeniopygia guttata). As to the kind of experiment: Example 1: offspring sex after a single maternal CORT injection at sex chromosome segregation, zebra finches. The class given is in vivo. As to conditions: 20 ug CORT about 19 h after first egg, third egg of sequence, control injected 46%. The protocol: This experiment was conducted to determine whether a single injection of CORT at the critical time of sex chromosome segregation is sufficient to skew offspring sex ratios towards females. Female zebra finches were monitored for signs of nest-building and egg-laying. Approximately 19 h following the appearance of the first egg (1 h before sex chromosome segregation), females received one of two treatments: (1) a high dose of CORT (20 ug in 50 ul peanut oil), or (2) a control treatment (50 ul peanut oil). Because oviposition and ovulation are nearly concurrent, ovulation of the second egg took place when the first egg was laid. Thus, the egg that would be affected by our treatment was the third egg in the sequence. Eggs were labeled as they were laid and were collected after 6 d of incubation for molecular sexing analysis as described above. The percentage of females producing male offspring in each group were calculated and compared using chi square analyses. Blood samples were taken from a subset of females 1 h and 2.5 h post injection to verify that the CORT injection did, in fact, elevate circulating maternal CORT concentrations. CORT was quantified using a standard radioimmunoassay and CORT concentrations were log transformed and analyzed using an analysis of variance (ANOVA).

The next data set deals with avian species. As to conditions: long-term silastic implants, literature; cited from earlier work.
The test system of data set [4] is white leghorn and brown hyline hens. As to the kind of experiment: Example 1: offspring sex after a single maternal CORT injection, chickens. The class given is in vivo, chicken. As to conditions: 2 mg CORT about 19 h after a mid-sequence egg, p=0.002 vs controls, p<0.0001 vs non-injected. The protocol:
This experiment was similar to the previous one in that a single injection of CORT was provided at the time of meiotic segregation and the sexes of the resulting eggs were quantified. Laying patterns of female white leghorn and brown hyline hens were monitored and timed. Females that were laying between 1000 and 1200 h EST were included in the experiment. Females were artificially inseminated using pooled semen from 5-10 roosters at two time points prior to treatment.
Approximately 19 h following the appearance of a mid-sequence egg, females received one of three treatments: (1) a high dose of CORT (2 mg in 0.5 ml peanut oil), (2) a control treatment (0.5 ml peanut oil), or (3) no injection treatment. The egg corresponding to the next ovulation event was labeled, collected, and incubated at 37° C. for a period of 7 days to allow for embryonic development. Embryos were separated and sexed using PCR based techniques as described above. The percentage of females producing male offspring in each group were calculated and compared using chi square analyses. […] CORT was quantified using a standard radioimmunoassay and CORT concentrations were log transformed and analyzed using an analysis of variance (ANOVA).

Take `C[C@]12C[C@H](O)[C@H]3[C@@H](CCC4=CC(=O)CC[C@@]43C)[C@@H]1CC[C@@H]2C(=O)CO` [corticosterone]: in data set [1], the “testosterone concentrations after CORT” value is listed as “testosterone concentrations increased significantly”. The “plasma corticosterone levels compared to non-injected birds” value in data set [2] (20 minutes after injection, p<0.0001) is given as “raised corticosterone levels significantly”; in data set [2] (1 hour post-injection, p=0.0002), “remained significantly elevated”. Moreover, the “levels of corticosterone post-injection” value in data set [2] (20 minutes, 1 hour and 2.5 hours post-injection (summary statement)) is reported as “significantly elevated levels of corticosterone”. In addition, in data set [2] (2.5 hours after injection, p=0.0789), the “plasma corticosterone levels, CORT treated versus control treated females” value is on record as “similar”. For the same molecule, the “plasma corticosterone levels compared to unmanipulated females” value in data set [2] (2.5 hr post-injection versus unmanipulated birds sampled at 1 h, p=0.0401) is “significantly higher corticosterone levels”. For the same molecule, the “plasma corticosterone levels (FIG. 4 legend)” value in data set [2] (min and one hour after injection) was “significantly raised plasma corticosterone levels”. Moreover, in data set [3], the “eggs that were male (primary sex ratio)” value is 71%. For the same molecule, the “offspring sex ratio with long-term CORT elevation” value with avian species is reported as “sex ratios were skewed significantly towards females”. Also, the “likelihood of male embryos compared to controls and non-injected females” value in data set [4] is recorded as “significantly more likely to be male”.

The values are drawn from patent US8889662B2, “Method to alter sex ratios in avian offspring” (University of Georgia Research Foundation, Inc., priority 2009, dated 2014).
